According to US6906198B1, “Antipicornaviral compounds, their preparation and use” (Agouron Pharmaceuticals, Inc., priority 1998, dated 2005):
Like-named read-outs stand apart in the source and are kept apart here.

Columns and labels:
[1] = system: Coxsackievirus type A-21 (CAV-21); test: Anticoxsackieviral cell culture assay (XTT), CAV-21; type: cell-based
Method: (§1) Anticoxsackieviral Cell Culture Assay
(§2) Coxsackievirus types A-21 (CAV-21) and B3 (CVB-3) were purchased from American Type Culture Collection (ATCC, Rockville, Md.). Virus stocks were propagated and antiviral assays were performed in H1-HeLa cells (ATCC). Cells were grown in minimal essential medium with 10% fetal bovine serum (Life Technologies, Gaithersburg, Md.).
(§3) The ability of compounds to protect cells against either CAV-21 or CVB-3 infection was measured by the XTT dye reduction method. This method is described in Weislow et al., J. Natl. Cancer Inst. 1989, vol. 81, 577-586. H1-HeLa cells were infected with CAV-21 or CVB-3 at a multiplicity of infection (m.o.i.) of 0.025 or 0.075, respectively, or mock-infected with medium only. H1-HeLa cells were plated at 4×10^4 cells per well in a 96-well plate and incubated with appropriate concentrations of the test compound. One day (CVB-3) or two days (CAV-21) later, XTT/PMS was added to test plates and the amount of formazan produced was quantified spectrophotometrically at 450/650 nm. The EC50 was calculated as the concentration of compound that increased the formazan production in compound-treated, virus-infected cells to 50% of that produced by compound-free, uninfected cells. […] The therapeutic index (TI) was calculated by dividing the CC50 by the EC50. […]

[2] = Cytotoxicity in mock-infected H1-HeLa cells (antirhinoviral assay, XTT); type: cell-based; conditions: human, 50% cytotoxic dose
Method: (§4) H1-HeLa cells were infected with HRV-14 at a multiplicity of infection (m.o.i.) of 0.13 (virus particles/cell) or mock-infected with medium only. Infected or mock-infected cells were resuspended at 8×10^5 cells per mL, and incubated with appropriate concentrations of the compounds to be tested. Two days later, XTT/PMS was added to test plates and the amount of formazan produced was quantified spectrophotometrically at 450/650 nm. The EC50 value was calculated as the concentration of compound that increased the percentage of formazan production in compound-treated, virus-infected cells to 50% of that produced by compound-free, mock-infected cells. The 50% cytotoxic dose (CC50) was calculated as the concentration of compound that decreased the percentage of formazan produced in compound-treated, mock-infected cells to 50% of that produced by compound-free, mock-infected cells. The therapeutic index (TI) was calculated by dividing the CC50 value by the EC50 value.
(§5) All strains of human rhinovirus (HRV) for use in this assay were purchased from American Type Culture Collection (ATCC), except for HRV serotype-14 (produced from the infectious cDNA clone constructed by Dr. Robert Rueckert, Institute for Molecular Virology, University of Wisconsin, Madison, Wis.). HRV stocks were propagated and viral assays were performed in H1-HeLa cells (ATCC). Cells were grown in minimal essential medium with 10% fetal bovine serum, available from Life Technologies (Gaithersburg, Md.).

[3] = system: HRV serotype 87; test: Antirhinoviral H1-HeLa cell culture assay (XTT), HRV-87; type: cell-based; conditions: Human rhinovirus sp., H1-HeLa cells
Method: (§6) Antirhinoviral H1-HeLa Cell Culture Assay
(§7) In this cell protection assay, the ability of compounds to protect cells against HRV infection was measured by the XTT dye reduction method, which is described in Weislow et al., J. Natl. Cancer Inst. 1989, vol. 81, 577-586.
as §4, with “value. […]” for “value.”

[4] = system: HRV serotype 2; test: Antirhinoviral H1-HeLa cell culture assay (XTT), HRV-2; type: cell-based; conditions: Human rhinovirus sp., H1-HeLa cells
Method: as §6, §7
as §4, with “value. […]” for “value.”

[5] = system: HRV serotype 12; test: Antirhinoviral H1-HeLa cell culture assay (XTT), HRV-12; type: cell-based; conditions: Human rhinovirus sp., H1-HeLa cells
Method: as §6, §7
as §4, with “value. […]” for “value.”

[6] = system: Coxsackievirus type B3 (CVB-3); test: Anticoxsackieviral cell culture assay (XTT), CVB-3; type: cell-based
Method: as §1, §2, §3

[7] = Cytotoxicity in uninfected MRC-5 cells (anti-echoviral/-enteroviral assay, XTT); type: cell-based; conditions: human, 50% cytotoxic dose
Method: (§8) Echovirus type 11 (EV 11) and enterovirus type 70 (EV 70) were purchased from ATCC (Rockville, Md.). Virus stocks were propagated and antiviral assays were performed in MRC-5 cells (ATCC). Cells were grown in minimal essential medium with 10% fetal bovine serum (Life Technologies, Gaithersburg, Md.).
(§9) The ability of compounds to protect cells against either EV 11 or EV 70 infection was measured by the XTT dye reduction method (Weislow et al., J. Natl. Cancer Inst. 1989, vol. 81, 577-586). MRC-5 cells were infected with EV 11 or EV 70 at an m.o.i. of 0.003 or 0.004, respectively, or mock-infected with medium only. Infected or uninfected cells were added at 1×10^4 cells per well and incubated with appropriate concentrations of compound. Four days later, XTT/PMS was added to test plates, and the amount of formazan produced was quantified spectrophotometrically at 450/650 nm. The EC50 was calculated as the concentration of compound that increased the formazan production in compound-treated, virus-infected cells to 50% of that produced by compound-free, uninfected cells. The 50% cytotoxic dose (CC50) was calculated as the concentration of compound that decreased formazan production in compound-treated, uninfected cells to 50% of that produced in compound-free, uninfected cells. The therapeutic index (TI) was calculated by dividing the CC50 by the EC50.

[8] = system: Echovirus type 11 (EV 11); test: Anti-echoviral cell culture assay (XTT), EV 11; type: cell-based; conditions: Enterovirus B, MRC5
Method: (§10) Anti-Echoviral and -Enteroviral Cell Culture Assays
as §8
as §9, with “The 50% cytotoxic dose (CC50) was calculated as the concentration of compound that decreased formazan production in compound-treated, uninfected cells to 50% of that produced in compound-free, uninfected cells.” left out, “EC50. […]” for “EC50.”

[9] = system: HRV serotype 39; test: Antirhinoviral H1-HeLa cell culture assay (XTT), HRV-39; type: cell-based; conditions: Human rhinovirus sp., H1-HeLa cells
Method: as §6, §7
as §4, with “value. […]” for “value.”

[10] = system: HRV serotype 13; test: Antirhinoviral H1-HeLa cell culture assay (XTT), HRV-13; type: cell-based; conditions: Human rhinovirus sp., H1-HeLa cells
Method: as §6, §7
as §4, with “value. […]” for “value.”

[11] = system: HRV serotype 3; test: Antirhinoviral H1-HeLa cell culture assay (XTT), HRV-3; type: cell-based; conditions: Human rhinovirus sp., H1-HeLa cells
Method: as §6, §7
as §4, with “value. […]” for “value.”

[12] = system: HRV serotype 17; test: Antirhinoviral H1-HeLa cell culture assay (XTT), HRV-17; type: cell-based; conditions: Human rhinovirus sp., H1-HeLa cells
Method: as §6, §7
as §4, with “value. […]” for “value.”

[13] = system: HRV serotype 89; test: Antirhinoviral H1-HeLa cell culture assay (XTT), HRV-89; type: cell-based; conditions: Human rhinovirus sp., H1-HeLa cells
Method: as §6, §7
as §4, with “value. […]” for “value.”

[14] = system: HRV serotype 1A; test: Antirhinoviral H1-HeLa cell culture assay (XTT), HRV-1A; type: cell-based, human rhinovirus; conditions: Human rhinovirus sp., H1-HeLa cells
Method: as §6, §7, §4, §5
(§11) The compounds were tested against control compounds WIN 51711, WIN 52084, and WIN 54954 (obtained from Sterling-Winthrop Pharmaceuticals), Pirodavir (obtained from Janssen Pharmaceuticals), and Pleconaril (prepared according to the method described in Diana et al., J. Med. Chem 1995, vol. 38, 1355). […]

[15] = system: HRV serotype 9; test: Antirhinoviral H1-HeLa cell culture assay (XTT), HRV-9; type: cell-based; conditions: Human rhinovirus sp., H1-HeLa cells
Method: as §6, §7
as §4, with “value. […]” for “value.”

[16] = system: enterovirus type 70 (EV 70); test: Anti-enteroviral cell culture assay (XTT), EV 70; type: cell-based; conditions: Enterovirus D, MRC5
Method: as §10, §8
as §9, with “The 50% cytotoxic dose (CC50) was calculated as the concentration of compound that decreased formazan production in compound-treated, uninfected cells to 50% of that produced in compound-free, uninfected cells.” left out, “EC50. […]” for “EC50.”

[17] = system: HRV serotype 38; test: Antirhinoviral H1-HeLa cell culture assay (XTT), HRV-38; type: cell-based; conditions: Human rhinovirus sp., H1-HeLa cells
Method: as §6, §7
as §4, with “value. […]” for “value.”

[18] = system: HRV-14; test: Antirhinoviral H1-HeLa cell culture assay (XTT), HRV-14; type: cell-based, human rhinovirus
Method: as §6, §7, §4, §5
The compounds were tested against control compounds WIN 51711, WIN 52084, and WIN 54954 (obtained from Sterling-Winthrop Pharmaceuticals), Pirodavir (obtained from Janssen Pharmaceuticals), and Pleconaril (prepared according to the method described in Diana et al., J. Med. Chem 1995, vol. 38, 1355). Antiviral data obtained for the test compounds are shown in Tables 1 and 3, where all data are for HRV serotype-14 unless otherwise noted in parentheses.

[19] = system: HRV serotype 30; test: Antirhinoviral H1-HeLa cell culture assay (XTT), HRV-30; type: cell-based; conditions: Human rhinovirus sp., H1-HeLa cells
Method: as §6, §7
as §4, with “value. […]” for “value.”

[20] = system: HRV serotype 10; test: Antirhinoviral H1-HeLa cell culture assay (XTT), HRV-10; type: cell-based, human rhinovirus; conditions: Human rhinovirus sp., H1-HeLa cells
Method: as §6, §7, §4, §5, §11

[21] = Cytotoxicity in uninfected H1-HeLa cells (anticoxsackieviral assay, XTT); type: cell-based; conditions: human; 50% cytotoxic dose, uninfected H1-HeLa cells (Table 4)
Method: as §2
(§12) The ability of compounds to protect cells against either CAV-21 or CVB-3 infection was measured by the XTT dye reduction method. This method is described in Weislow et al., J. Natl. Cancer Inst. 1989, vol. 81, 577-586. H1-HeLa cells were infected with CAV-21 or CVB-3 at a multiplicity of infection (m.o.i.) of 0.025 or 0.075, respectively, or mock-infected with medium only. H1-HeLa cells were plated at 4×10^4 cells per well in a 96-well plate and incubated with appropriate concentrations of the test compound. One day (CVB-3) or two days (CAV-21) later, XTT/PMS was added to test plates and the amount of formazan produced was quantified spectrophotometrically at 450/650 nm. The EC50 was calculated as the concentration of compound that increased the formazan production in compound-treated, virus-infected cells to 50% of that produced by compound-free, uninfected cells. The 50% cytotoxic dose (CC50) was calculated as the concentration of compound that decreased formazan production in compound-treated, uninfected cells to 50% of that produced in compound-free, uninfected cells. The therapeutic index (TI) was calculated by dividing the CC50 by the EC50.

[22] = system: HRV serotype 16; test: Antirhinoviral H1-HeLa cell culture assay (XTT), HRV-16; type: cell-based; conditions: Human rhinovirus sp., H1-HeLa cells
Method: as §6, §7
as §4, with “value. […]” for “value.”

[23] = system: HRV serotype 25; test: Antirhinoviral H1-HeLa cell culture assay (XTT), HRV-25; type: cell-based; conditions: Human rhinovirus sp., H1-HeLa cells
Method: as §6, §7
as §4, with “value. […]” for “value.”

[24] = system: H1-HeLa cells; test: Cytotoxicity in mock-infected H1-HeLa cells (antirhinoviral assay, XTT); type: cell-based; conditions: 50% cytotoxic dose
Method: as §4, §5

[25] = system: H1-HeLa cells; test: Cytotoxicity in uninfected H1-HeLa cells (anticoxsackieviral assay, XTT); type: cell-based; conditions: 50% cytotoxic dose, uninfected H1-HeLa cells (Table 4)
Method: as §2, §12

CCOC(=O)/C=C/[C@H](C[C@@H]1CCNC1=O)NC(=O)[C@H](Cc1ccc(F)cc1)NC(=O)[C@@H](NC(=O)c1cc(C)on1)C(C)C [(A-5), Ethyl-3-{(5′-Methylisoxazole-3′-carbonyl)-L-Val-L-(4-F-Phe)-L-((S)-Pyrrol-Ala)}-E-Propenoate]
EC50 ([1]; Coxsackievirus, H1-HeLa): 230 nM
CC50 at 2 days [2]: > 10000 nM
EC50 [3]: 210 nM
EC50 [4]: 10 nM
EC50 [5]: 60 nM
EC50 ([6]; Coxsackievirus, H1-HeLa): 1000 nM
CC50 at 4 days [7]: > 10000 nM
EC50 [8]: 80 nM
EC50 [9]: 20 nM
EC50 [10]: 20 nM
EC50 [11]: 50 nM
EC50 [12]: 20 nM
EC50 [13]: 20 nM
EC50 [14]: 30 nM
EC50 [15]: 40 nM
EC50 [16]: 40 nM
EC50 [17]: 130 nM
EC50 ([18]; Rhinovirus B, HRV14, HRV serotype-14, H1-HeLa cells (Table 1), read-out: Cell Protection EC50): 5 nM
EC50 ([18]; Rhinovirus B, HRV14, HRV serotype-14, H1-HeLa cells (Table 3), read-out: EC50): 5 nM
EC50 [19]: 60 nM
EC50 [20]: 50 nM
CC50 [21]: > 10000 nM
EC50 [22]: 20 nM
EC50 [23]: 180 nM
melting point: 219 to 220 °C

CCOC(=O)/C=C/[C@H](C[C@@H]1CCNC1=O)NC(=O)[C@H](Cc1ccc(F)cc1)NC(=O)[C@@H](NC(=O)c1cc(C)on1)C(C)(C)C [(A-7), Ethyl-3-{(5′-Methylisoxazole-3′-carbonyl)-L-α-(t-Butyl-Gly)-L-(4-F-Phe)-L-((S)-Pyrrol-Ala)}-E-Propenoate]
CC50 at 2 days [2]: > 10000 nM
EC50 [3]: 590 nM
EC50 [5]: 70 nM
EC50 [17]: 170 nM
EC50 [19]: 90 nM
EC50 [23]: 200 nM

Cc1cc(CCCCCOc2c(Cl)cc(C3=NCCO3)cc2Cl)on1 [WIN 54954, reference compound]
EC50 ([1]; CAV-21, H1-HeLa cells, read-out: EC50): > 100000 nM
CC50 [24]: > 63000 nM
EC50 ([6]; CVB-3, H1-HeLa cells, read-out: EC50): > 100000 nM
EC50 ([18]; HRV serotype-14, H1-HeLa cells (Table 3), read-out: EC50): 2130 nM
CC50 [25]: > 100000 nM
